# Experimental data from patent publication US20190183856A1, “METHODS FOR TREATING CANCER” (Macau University of Science and Technology, priority 2017, published 2019).
# Legend:
# Type in all cases: cell-based, Human
# [1] = system: HCT116 (p53+/+) cells; test: In vitro cell proliferation assay (SRB assay) on HCT116 cells; settings: for relative growth rate: 10 μM APTM, percentage of control
# Procedure: (§1) Human colon cancer cell line HCT116 (p53+/+) was purchased from ATCC and the p53−/− HCT116 cell line was provided by Bert Vogelstein, Johns Hopkins University. Cells were cultured in McCoy's 5A medium supplemented with 10% FBS, 100 units/ml penicillin G, and 100 μg/ml streptomycin in humidified atmosphere with 5% CO2. Cells were passaged twice weekly to maintain logarithmic growth.
# (§2) The anti-proliferative effects of APTM on cancer cell lines were assessed by sulforhodamine B (SRB) colorimetric assay. Cells were seeded in 96-well plates at densities of 5,000 cells per well and cultured overnight. Then cells were susceptible to APTM at indicated concentrations and cultured for indicated times. After incubation, attached cells were fixed with 50 μL cold 50% (w/v) trichloroacetic acid (TCA) for 1 hour at 4° C., washed 5 times with slow-running tap water, and stained with 100 μL 0.4% (w/v) SRB. Optical density at 515 nm (OD515) was measured using a microplate reader (Molecular Devices) after mixing the protein-bound dye with 200 μL 10 mM Tris base solution (pH 10.5). The relative cell growth rate was determined with the following equation: Relative Growth (%)=OD (treated)/OD (control). The IC50 value was defined as the concentration required for a 50% reduction in cell growth.
# [2] = system: HCT116 p53−/− cells; test: In vitro cell proliferation assay (SRB assay) on HCT116 p53-/- cells
# Procedure: as §1, §2
# [3] = system: HCT116 cells; test: Colony formation assay; settings: 8 days
# Procedure: HCT116 cells were plated at 3,000 cells/well in six-well plates and cultured with indicated concentrations of APTM for 8 days. Cells were stained with 0.2% (w/v) crystal violet in buffered formalin for 20 minutes, and colonies were then photographed and quantified as previously described.
# [4] = system: HCT116 cells; test: Analysis of cell cycle by flow cytometry (PI staining); settings: 48 hours
# Procedure: Cell cycle distribution was determined by staining DNA with propidium iodide (PI). Briefly, 1.0×10^6 cells were incubated with or without APTM for 48 hours. Cells were washed with cold PBS and fixed in 70% ethanol at −20° C. for 2 hours. After washing with PBS, cells were stained with cold PI solution (20 μg/ml PI and 200 μg/mI RNase in PBS) for 30 minutes at room temperature in the dark. The percentage of cells in different phases of the cell cycle was determined by flow cytometer (BD Bioscience) and analyzed using FlowJo software.
# [5] = system: HCT116 p53+/+ cells; test: Analysis of apoptosis by flow cytometry (Annexin V-FITC/PI); settings: 48 hours, control 2.53%
# Procedure: (§3) Annexin V-FITC/PI double staining method was employed for the apoptosis assay in HCT116 p53+/+ and HCT116 p53−/− cells (1×10^6/well, 6-well plate). After 48 hours of treatment with APTM, cells were harvested in 15 ml centrifuge tubes by gentle scraping followed by centrifugation at 300×g for 5 minutes at room temperature. Cell suspension was washed two times with cold PBS by centrifugation at 300×g for 5 minutes at room temperature. Then cells were harvested, washed twice with cold PBS, and resuspended in 1×binding buffer (100 μL). Cells were transferred into a 1.5 ml micro-centrifuge tubes and stained with propidium iodide (5 μL) and FITC annexin V (5 μL). Cells were briefly vortexed after incubation for 15 minutes in the dark at room temperature. Then cells were filtered and analyzed by flow cytometry. Total apoptotic cells (FITC to Annexin V positive) were counted.
# [6] = system: HCT116 p53−/− cells; test: Analysis of apoptosis by flow cytometry (Annexin V-FITC/PI), p53-deficient cells; settings: 48 hours
# Procedure: as §3
# [7] = system: HCT116 cells; test: Assessment of cell morphological changes (Hoechst 33258 staining); settings: HCT116 cells, 3, 10 and 30 μM, 48 hours
# Procedure: (§4) Cells were plated in 6-well plates (200,000 cells/well) and treated with indicated concentrations of APTM. After incubation for 48 hours, cells were collected, washed with PBS and stained with Hoechst 33258 ([…]) in buffered formalin solution containing 5.6% NP-40. Apoptotic and living cells were viewed through DAPI filter of fluorescence inverted microscope (Leica DM2500 Fluorescence Microscope) at 400× magnifications.
# [8] = system: HCT116 p53−/− cells; test: Assessment of cell morphological changes (Hoechst 33258 staining), p53-deficient cells; settings: highest concentration of 30 μM, 48 hours
# Procedure: as §4
# [9] = system: p53/Bax/cPARP signaling axis in HCT116 cells; test: Western blotting of apoptosis markers p53, Bax, cPARP; settings: 48 hours
# Procedure: (§5) HCT116 cells were treated with APTM at indicated concentrations for 48 hours, and harvested via trypsinization. Protein samples were prepared by scratching cells in RIPA buffer containing protease inhibitor cocktail (Roche) and diluted in SDS-PAGE protein sample buffer. Samples were heated for 5 minutes at 100° C. Protein concentrations were measured using Direct Detect® Infrared Spectrometer (Millipore, USA) according to the manufacturer's instructions. Equal amount of proteins were loaded on 4-20% SDS-polyacrylamide (PAGE) gel. After electrophoresis, gels were transferred to a PVDF membrane (Millipore) and incubated with primary antibodies overnight at 4° C. The membranes were then washed with TBST and incubated with horseradish peroxidase-conjugated anti-rabbit or anti-mouse antibodies (1:10000, Santa Cruz, Calif., USA) for 45 min at room temperature. Proteins were visualized with SuperSignal West Dura Extended Duration Substrate or SuperSignal West Pico Chemiluminescent Substrate (Thermo Scientific) using the Amersham Imager 600 western blotting system.
# [10] = system: Bax and cPARP expression in HCT116 p53−/− cells; test: Western blotting of apoptosis markers, p53-deficient cells; settings: different APTM concentrations
# Procedure: as §5
smiles,measurement,setting,value
"Cc1cccc(C)c1Nc1sc(C(=O)c2ccc(F)cc2)c(N)c1S(=O)(=O)c1ccccc1 [APTM, [3-Amino-5-[(2,6-dimethylphenyl)amino]-4-(phenylsulfonyl)-2-thienyl](4-fluorophenyl)methanone]",relative growth rate,[1]; 24 hours,76.36%
same,relative growth rate,[1]; 72 hours,24.57%
same,IC50,"[1]; Homo sapiens, HCT-116, 48 hours, SRB assay, read-out: IC50 value (50% reduction in cell growth)",6.57 µM
same,resistance of p53 deficient cells versus HCT116 p53+/+ cells (IC50 ratio),[2]; HCT116 p53−/− vs HCT116 p53+/+,more than 5 fold
same,IC50,"[2]; Homo sapiens, HCT-116, HCT116 p53−/− cells, 33.3 μM highest concentration tested, read-out: IC50 value (50% reduction in cell growth)",> 33.3 µM
same,Colony formation ability,[3]; 3.0 μM,significantly decreased
same,Colony formation ability,[3]; 10.0 μM,almost vanished
same,sub-G0/G1 fraction of cells,[4]; concentration-dependent,increased
same,"proportions of cells in G0/G1, S and G2/M phases",[4]; different concentrations,almost unchanged
same,percentage of apoptotic cells (annexin V positive),[5]; 3 μM,7.67%
same,percentage of apoptotic cells (annexin V positive),[5]; 10 μM,20.86%
same,percentage of apoptotic cells (annexin V positive),[5]; 30 μM,43.7%
same,APTM induced apoptosis (annexin V-FITC/PI flow cytometry),[6],resistant
same,apoptotic morphological changes (Hoechst staining),[7],typical morphological characteristics of apoptosis
same,nuclear staining / apoptotic morphological changes (Hoechst staining),[8],reserved normal nuclear staining
same,Bax level,[9],induced
same,cleaved nuclear poly(ADP-ribose) polymerase (cPARP) level,[9],concentration-dependently induction
same,p53 protein level,[9],substantially induced
same,Bax and cPARP expression,[10],blunted
